From US20150284362A1, “CARBAZOLE-CONTAINING AMIDES, CARBAMATES, AND UREAS AS CRYPTOCHROME MODULATORS” (ReSet Therapeutics, Inc., priority 2014, published 2015)

Tests used:
C57/Bl6J DIO mice = test: Increasing dosages of Compound 72 over 7 days in diet-induced obesity (DIO) mouse model; format: in vivo; conditions: 10, 30, 100 mg/kg PO QD 7 days
Text: Male C57/Bl6J DIO mice were obtained from The Jackson Laboratory (Sacramento, Calif.). […] Animals were accustomed to these conditions for at least 2 weeks before experimentation and used at approximately 24 weeks of age.
Significance was accepted when p<0.05.
Male C57/Bl6J DIO mice were obtained from The Jackson Laboratory (Sacramento, Calif.). […] Animals were accustomed to these conditions for at least 2 weeks before experimentation and used at approximately 26 weeks of age.

[1] = target: T1, FAD-binding domain of human CRY1 protein (hCRY1) (Homo sapiens, UniProt Q16526); test: Thermal shift binding assay (differential scanning fluorimetry); conditions: purified FADBD 0.5 μg per well, 5% DMSO
T1 construct: Myc-DDK (Myc + FLAG) (C); made in house
T1 sequence (Q16526 1-494): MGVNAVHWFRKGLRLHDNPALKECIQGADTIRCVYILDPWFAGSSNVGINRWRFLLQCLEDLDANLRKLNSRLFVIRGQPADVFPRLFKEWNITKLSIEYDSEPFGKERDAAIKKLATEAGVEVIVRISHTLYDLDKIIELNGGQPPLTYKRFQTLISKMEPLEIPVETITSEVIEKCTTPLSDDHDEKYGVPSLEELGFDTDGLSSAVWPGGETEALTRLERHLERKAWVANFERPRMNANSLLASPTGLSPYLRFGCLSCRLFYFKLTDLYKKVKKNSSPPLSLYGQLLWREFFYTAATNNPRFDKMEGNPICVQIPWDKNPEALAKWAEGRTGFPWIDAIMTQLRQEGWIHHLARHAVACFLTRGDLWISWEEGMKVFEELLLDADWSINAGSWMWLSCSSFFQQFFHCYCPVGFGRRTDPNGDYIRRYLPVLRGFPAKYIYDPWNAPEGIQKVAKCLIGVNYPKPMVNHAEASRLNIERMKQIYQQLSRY
Description: Binding of compounds to the isolated FAD-binding domain of human CRY1 protein (hCRY1) was determined using a differential scanning fluorimetry (‘thermal shift’) assay (Pantoliano et al. (2001) J Biomol Screening 6, 429; Niesen et al. (2007) Nature Protocols 2, 2212). The FAD-binding domain of hCRY1 (amino acid residues 1-494) with a C-terminal Myc-DDK tag (FADBD), was produced by transient transfection of HEK293T cells (Catalog # CRL-3216, American Type Culture Collection) and purified by anti-FLAG affinity chromatography (Catalog # A2220, Sigma-Aldrich). FADBD (0.5 μg per well) was incubated with dilutions of compounds in DMSO (5% DMSO final concentration in reaction) in 17.5 μl Tris-buffered saline (TBS) for 10 minutes on ice, then 2.5 μl of 8× Sypro-Orange Dye (Life Technologies) was added to each well. Triplicate wells were assayed for each compound concentration. The melting temperatures were measured in an ABI7500 quantitative PCR instrument using the melt curve mode with a thermal profile of 2 minutes at 25° C., followed by a ramp rate of 1° C./minute up to 99° C. The melting temperature for each well was determined from the first derivative of the melt curve. The change in melting temperature (ΔTm) was obtained by subtraction of the melting temperature of the FADBD in 5% DMSO alone.

[2] = Pharmacokinetic analysis in SD rats (plasma); format: in vivo; conditions: male, po, rat, 50 mg/kg P.O., Table 4, read-out: Total Plasma AUC, AUC (0-last)
Description: Male SD rats (weighing 250-300 g, Charles River Laboratories) were used for the experiment with n=4 rats for each experimental group. […] Blood was collected at the following time points after administration: 15, 30, 60, 90 minutes, 3, 6, 12 and 24 hours. A pre-dose sample was also collected. Animals were cannulated by technical staff at Charles River, prior to delivery at Reset. Whole blood (0.3 ml) was collected from a cannula in the right common jugular vein at each time-point. The whole blood was transferred to an EDTA tube, and then centrifuged at 5400 rpm for 5 minutes at 4° C. The resultant plasma was frozen using dry ice and then stored at −80° C. until ready for assay. 0.9% Sodium Chloride (0.3 ml) was administered for fluid replenishment after each blood draw. 0.1 ml of Sodium Heparin (500 IU/ml) was used as a lock solution after the 12 hr time-point. Samples were assayed as described above.

- change in melting temperature (ΔTm) of hCRY1 FADBD [1]: dose-dependent increase in ΔTm
- AUC(0-t) [2]: 57900 ng·h/mL
Structure (SMILES): O=C1NCCN1CC(O)Cn1c2ccc(F)cc2c2cc(F)ccc21 (stereo not drawn) [Compound 72, 1-(3-(3,6-difluoro-9H-carbazol-9-yl)-2-hydroxypropyl)imidazolidin-2-one]
- OGTT glucose excursion following a glucose load (C57/Bl6J DIO mice): reduction in glucose excursion
